# Results taken from US20230000982A1, “COMPOSITION FOR PREVENTING OR TREATING CANCER, CONTAINING NOVEL TRIFLUOROMETHYL PHENYL PYRAZOLE DERIVATIVE AS ACTIVE INGREDIENT” (KOREA INSTITUTE OF RADIOLOGICAL & MEDICAL SCIENCES, priority 2019, published 2023).
# How the values were obtained:
# [1] = system: breast cancer cell lines BT549, MCF7, T47D and MDA MB231; experiment: Colonogenic (colony formation) assay; format: cell-based, Human; settings: 10 μM, cultured for 14 days; various breast cancer cell lines
# Experimental: (§1) Human-derived tumor cell lines and breast cancer cell lines MCF7 and T47D, BT549, MDA-MB231, and MDA-MB453 was cultured in a DMEM medium (Corning, N.Y., USA), containing 10% fetal bovine serum (FBS; HyClone, South Logan, Utah) and 1% penicillin/streptomycin at 37° C. and 5% CO2 conditions.
# Colonogenic analysis was performed to determine whether the selected KRCT-1 could efficiently kill cancer cells. First, cells of various breast cancer cell lines BT549, MCF7, T47D and MDA MB231 (500-1000 cells) were cultured in a 60 mm culture plate, and 24 hours later, 10 μM of the compound was treated, respectively, and cultured for 14 days.
# [2] = system: Breast cancer cells MCF7; experiment: Tumorsphere forming assay; format: cell-based, Human; settings: cultured for 14 days; various breast cancer cell lines
# Experimental: as §1
# In order to determine whether the selected KRCT-1 can effectively reduce the tumorsphere formation in cancer cells, tumorsphere forming assay was performed. Breast cancer cells MCF7 (2500-10000 cells) were suspended in serum-free DMEM/F12 (welGENE), containing 1% penicillin, B-27 (1:50; invitrogen), 20 ng/mL epidermal growth factor (R&D Systems) and 20 ng/mL fibroblasts growth factors (R&D Systems) on low adhesion plates and cultured. After 24 hours had elapsed, the cells were treated with the compound and cultured for 14 days, and then the diameter of the tumorspheres was measured and quantified, which is shown in FIG. 3D.
# [3] = system: BT549 cell line; experiment: Immunodeficient mouse tumor model (xenograft) transplanted with BT549; format: in vivo; settings: 30 mg/kg intraperitoneally twice a week
# Experimental: By subcutaneously implanting a cancer cell line into an immunodeficient mouse tumor model, it was attempted to verify whether the anticancer effect of the compound actually occurs at the in vivo level. After the tumor was formed by implanting the BT549 cell line subcutaneously in the thigh of an immunodeficient mouse, in the case that the size of the tumor reached 50˜100 mm ˜3˜, the compound was intraperitoneally injected at 30 mg/kg twice a week. The tumor volume and the mouse weight were measured 3 times a week for the control group and the KRCT-1 treatment group, respectively. […] Western blotting was performed on the isolated mouse tumor for the tumor growth antigen Ki-67, which is shown B in FIG. 4b.
# [4] = system: MCF7; experiment: Annexin V/PI staining FACS apoptosis analysis, MCF7; format: cell-based, Human; settings: MCF7, 20 μM, 48 h
# Experimental: (§2) After Annexin V/PI staining, FACS analysis was performed to confirm the cancer cell killing effect. Cancer cell lines MCF7 and BT549 were treated for 48 h in the presence and absence of 20 μM of KRCT-1, and analysis of Annexin V binding was performed using the Annexin V-FITC apoptosis Detection Kit (BD Biosciences, San Jose, Calif., USA) according to the manufacturer's recommended protocol. Briefly, after collecting all cells, including the cell medium, the cells were centrifuged at 1500 rpm for 5 minutes, washed with 1×PBS, resuspended at 1×10^6 cell concentration, and then 100 μl of the cell suspension was added in a 5 ml tube, and 5 μl of Annexin V-FITC and 5 μl of PI were added thereto and cultured in the dark for 15 minutes at RT. 400 μl of 1× binding buffer was added to each tube and samples were analyzed by flow cytometry. As a result, it was confirmed that MCF7 induced about 40%, BT549 induced about 23% cell death.
# [5] = system: BT549; experiment: Annexin V/PI staining FACS apoptosis analysis, BT549; format: cell-based, Human; settings: BT549, 20 μM, 48 h
# Experimental: as §2
# [6] = system: Breast cancer cell lines BT549, T47D, and MCF7; experiment: Western blotting of survivin and apoptosis markers; format: cell-based, Human; settings: 0, 2.5, 5, 10, and 20 μM, 24 h
# Experimental: Apoptosis by KRCT-1 was confirmed through Western blotting. After separation of 20 μg of protein by SDS-PAGE electrophoresis and transferred to PVDF membrane, the following specific antibodies were used: rabbit polyclonal antibodies cleaved PARP (Asp214) (#9541) and phospho-Chk2 (Thr68) (#2661; Cell Signaling Technology, MA); rabbit monoclonal antibodies caspase3 (#9664), chk2 (#6334S), survivin (#2808S); mouse monoclonal antibody caspase 9 (551246; BD Pharmingen, Calif., USA). In addition, mouse monoclonal antibody (3-actin (C4; Santa Cruz Biotechnology, Calif., USA) was used as a loading control, washed with 1×PBS/0.1% Tween 20, and HRP-binding secondary antibody and improved chemiluminescence detection system was used to detect the binding protein, and an image of the band was obtained using the Amersham Imager 600 system (GE Healthcare Life Science), which is shown in FIG. 5b.
# Breast cancer cell lines BT549, T47D, and MCF7 were treated with 0, 2.5, 5, 10, and 20 μM of KRCT-1 in a dose-dependent manner for 24 h each, and the expression level of survivin essential for the survival of cancer cells and the expression levels of an apoptosis markers, clv-PARP, caspase 9 and caspase 3 were checked. According to the concentration of the treated KRCT-1, the expression levels of survivin and pro-caspase 9 in cancer cells were decreased, and it was confirmed that the truncated PARP and caspase3 increased during apoptosis. Through the above results, it was confirmed that apoptosis was activated due to KRCT-1.
# [7] = system: breast cancer cell lines BT549, T47D and MCF7; experiment: Clonogenic assay, combination of KRCT-1 and radiation; format: cell-based, Human; settings: 2.5 μM KRCT-1 + 2.5 Gy radiation; compared to DMSO group
# Experimental: A clonogenic assay was performed to confirm the effect of the combination of KRCT-1 and radiation. To perform clonogenic assay, breast cancer cell lines BT549, T47D and MCF7 were treated with 2.5 μM of KRCT-1 compound, and 2.5 Gy radiation was used using Biobeam GM8000 (Gamma-Gamma-Service Medical GmbH, Leipzig, Germany). The experimental technique for the remaining colony formation was performed in the same manner as in the above Example, and was shown in FIG. 6a. In the group treated with KRCT-1, the radiation treatment effect of the two cancer cell lines was significant compared to the group treated with DMSO, confirming that the number of cancer cell colonies decreased.
# [8] = system: breast cancer cell lines BT549, T47D and MCF7; experiment: Western blotting, radiation combination effect; format: cell-based, Human; settings: 10 μM + 3 Gy radiation, 30 h
# Experimental: In order to confirm the synergistic effect of radiosensitivity of cancer cell lines through treatment with KRCT-1 through Western blotting experiments, 10 μM of KRCT-1 compound was treated in breast cancer cell lines BT549, T47D and MCF7, and Biobeam GM8000 (Gamma-Gamma-Service Medical GmbH, Leipzig, Germany) was used to culture for 30 h after treatment with 3 Gy radiation. For Western blotting, 20 μg of protein was isolated through SDS-PAGE electrophoresis and transferred to a PVDF membrane. The following specific antibodies were used: rabbit polyclonal antibody phospho-Chk2 (Thr68) (#2661; Cell Signaling Technology, MA); rabbit monoclonal antibody chk2 (#6334S) were used. The remaining conditions of Western blotting were performed in the same manner as in the above Example. […] Through the above results, it was confirmed that apoptosis of cancer cells appeared effectively.
# [9] = system: MCF7 cells; experiment: γ-H2AX foci experiment (DNA damage) with radiation; format: cell-based, Human; settings: 20 μM for 24 h + 2 Gy radiation, fixed at 1 h; compared to each control group
# Experimental: To determine how KRCT-1 affects DNA damage induced by radiation, a γ-H2AX foci experiment was performed. In the case that single-stranded or double-stranded DNA is cleaved by various DNA damaging agents including radiation, γ-H2AX phosphorylation occurs and nuclear foci are generated in the cell nucleus. Using this as an index, the effect of the combination according to DNA damage was evaluated. After culturing 2.5×10^4 MCF7 cells in a 24-well plate for 48 h, KRCT-1 20 μM was treated for 24 h, and the cells were fixed at 1 h after irradiation with 2 Gy of radiation. Then, after washing with phosphate buffered saline for permeation, 4% paraformaldehyde and 0.2% Triton-X were added and reacted for 10 min each. After 1 h pretreatment with 5% fetal bovine serum, 1:100 dilution of γ-H2AX (05-656; EMD Millipore Corp., MA, USA) antibody to phosphorylated H2AX for was treated for 16 h, and it was washed 3 times with 0.1% TritonX-100/phosphate buffered saline solution (Tritonx-100/PBS). Alexa488-conjugated secondary antibody (AP132JA4, Invitrogen) was reacted for 2 h at room temperature and labeled, and phosphorylated γ-H2AX foci were photographed and analyzed with IN Cell Analyzer 6000 (GE Healthcare Life Science). […] Taken together, in cancer cells, it was confirmed that KRCT-1 is a material that can be effectively used as a radiosensitizer.
# [10] = biological target: T1, Trk-A kinase (Homo sapiens, UniProt P04629); experiment: Western blotting of Trk-A downstream signaling (phosphorylated ERK, phosphorylated STAT3) in cancer cell lines; format: cell-based; settings: 2.5, 5, 10, 20 μM; FIG. 7c
# T1 sequence (P04629 33-796): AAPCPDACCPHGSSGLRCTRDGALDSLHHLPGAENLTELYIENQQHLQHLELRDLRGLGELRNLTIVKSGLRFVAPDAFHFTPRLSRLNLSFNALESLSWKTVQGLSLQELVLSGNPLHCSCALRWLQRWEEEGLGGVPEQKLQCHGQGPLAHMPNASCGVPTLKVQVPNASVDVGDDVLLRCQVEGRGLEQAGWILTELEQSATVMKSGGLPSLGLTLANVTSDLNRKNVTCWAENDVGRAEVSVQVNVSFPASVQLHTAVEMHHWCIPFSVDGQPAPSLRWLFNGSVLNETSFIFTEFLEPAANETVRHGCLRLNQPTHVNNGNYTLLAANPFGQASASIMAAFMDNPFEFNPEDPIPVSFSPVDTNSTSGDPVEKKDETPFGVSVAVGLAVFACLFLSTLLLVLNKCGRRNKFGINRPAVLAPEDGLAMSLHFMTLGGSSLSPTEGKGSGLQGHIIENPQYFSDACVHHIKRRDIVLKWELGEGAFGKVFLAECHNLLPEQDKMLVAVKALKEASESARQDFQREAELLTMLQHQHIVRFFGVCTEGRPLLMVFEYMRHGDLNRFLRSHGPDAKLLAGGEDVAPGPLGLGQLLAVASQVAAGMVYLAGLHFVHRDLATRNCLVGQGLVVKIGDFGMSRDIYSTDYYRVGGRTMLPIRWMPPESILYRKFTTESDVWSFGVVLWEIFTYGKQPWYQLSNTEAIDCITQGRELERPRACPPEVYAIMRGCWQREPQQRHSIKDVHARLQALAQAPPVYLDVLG
# Experimental: In cancer cell lines, it was confirmed whether KRCT-1 inhibits the activity of Trk-A kinase to inhibit downstream signaling. In the case that Trk-A is activated by ligand, the MEK/ERK and STAT3 signaling pathways in the cell are activated. Using this as an indicator, changes in phosphorylated ERK and phosphorylated STAT3 were confirmed in the case that cancer cell lines were treated with KRCT-1 concentrations (2.5, 5, 10, 20 μM). For Western blotting, 20 μg of protein was isolated through SDS-PAGE electrophoresis and transferred to PVDF membrane. The following specific antibodies were used: rabbit polyclonal antibody phospho-STAT3 (Tyr705) (ab76315; Abcam, UK), mouse monoclonal antibodies phospho-ERK (Thr202/Tyr204) (sc-514302; Santa Cruz Biotechnology), ERK (sc-7383; Santa Cruz Biotechnology), and STAT3 (sc8019; Santa Cruz Biotechnology) were used. The remaining conditions of Western blotting were performed in the same manner as in the above Example.
# [11] = biological target: T1, Trk-A kinase; experiment: In vitro kinase assay of Trk-A; format: biochemical; parameters: purchased Eurofins Pharma Discovery Services (commissioned via Goma Biotech); settings: serially diluted 3-fold from 100 μM; FIG. 7b
# Experimental: To measure the selective reactivity of KRCT-1 to a specific kinase, in vitro kinase assay profiling was commissioned to Goma Biotech (Seoul, Korea), and the enzyme reaction experiment was performed at Eurofins Pharma Discovery Services (Scotland, UK). For kinase profiling, 104 kinase series and 10 μM KRCT-1 were used in the reaction as a broad oncology panel. To obtain the IC50 kinase assay of Trk-A, KRCT-1 serially diluted 3-fold from 100 μM was used.
smiles,measurement,setting,value
"CN(C)S(=O)(=O)Nc1cccc(-c2cnn(-c3ccc(C(F)(F)F)cc3)c2)c1 [KRCT-1, N,N-dimethyl-N′-(3-(1-(4-(trifluoromethyl)phenyl)-1H-pyrazol-4-yl)phenyl)azanesulfonamide]",number and size of cell colonies,[1],significantly reduced
same,diameter of cancer cell tumorspheres,[2],significantly reduced
same,expression of Ki-67 in isolated mouse tumor (Western blotting),[3],significantly reduced
same,tumor volume and size,"[3]; 4 weeks after transplantation, vs control group",smaller tumor volume and size than the control group
same,body weight of immunodeficient mice,[3]; weight measured 3 times a week,not significantly changed
same,cell death (Annexin V/PI FACS),[4],about 40%
same,cell death (Annexin V/PI FACS),[5],about 23%
same,truncated PARP,[6],increased
same,truncated caspase3,[6],increased
same,expression level of pro-caspase 9,[6]; according to concentration,decreased
same,expression level of survivin,[6]; according to concentration,decreased
same,number of cancer cell colonies after radiation,[7],decreased
same,expression level of phosphorylated Chk2 after radiation treatment,[8],increased
same,expression level of survivin after radiation treatment,[8],decreased
same,DNA damage (phosphorylated γ-H2AX foci),[9],DNA damage occurred in relatively many cancer cells
same,downstream signaling of Trk-A kinase in cancer cells,[10],inhibited
same,in vitro Trk-A kinase activity,[11],inhibition
